Results taken from ChEMBL document CHEMBL5370641, “Structure-Based Optimization and Biological Evaluation of Potent and Selective MMP-7 Inhibitors for Kidney Fibrosis” (J Med Chem, 2023).
Active and inactive are the calls of the source. No cut-off for these calls is given here. Numbered stars: 1 amine (or outer) side, 2 acyl side, 3 side chain; on linkers, the order of the positions; unused ones are H or OH. Square brackets hold non-standard residues; d marks the D form. Peptide text beside a SMILES is read from it. * marks the point of attachment. Benzenesulfonyl(4-Cl,3-CF3) = O=S(=O)(c1ccc(Cl)c(C(F)(F)F)c1)*; γGlu = O=C(O)[C@H](CCC(=O)[*:2])N[*:1]; 4Pal = N[C@@H](Cc1ccncc1)C(=O)O; Tle = CC(C)(C)[C@H](N)C(=O)O; β3hP = O=C(O)C[C@@H]1CCCN1

Legend:
Homo sapiens [1] = species: Homo sapiens; experiment: Selectivity ratio of IC50 for inhibition of recombinant human MMP1 to IC50 for inhibition of recombinant human MMP7
Homo sapiens [2] = species: Homo sapiens; experiment: Selectivity ratio of IC50 for inhibition of recombinant human MMP2 to IC50 for inhibition of recombinant human MMP7
[3] = Total clearance in Sprague-Dawley rat at 1 mg/kg, iv administered as single dose by LC-MS/MS analysis; type: ADME, organism-based; conditions: in vivo
[4] = Protein binding in mouse serum incubated for 4 hrs by equilibrium dialysis based LC-MS/MS analysis; type: ADME, cell-free; conditions: read-out: PB (converted)
Mus musculus = experiment: Antifibrotic activity against unilateral ureteric obstruction induced C57BL/6J mouse model of renal fibrosis assessed as reduction in renal collagen at 10 to 100 mg/kg/day, SC preadministered with compound for 7 days followed by UUO surgery and measured after 7 days; type: functional, organism-based; conditions: dose 10-100 mg/kg/day, time 14.0 day
Interstitial collagenase = target: T1, Interstitial collagenase (Homo sapiens, UniProt P03956); experiment: Inhibition of recombinant human MMP1 using MOCAc-Lys-Pro-Leu-Gly-Leu-A2pr(Dnp)-Ala-Arg-NH2 as substrate preincubated with compound for 15 mins followed by substrate addition and measured after 1 hrs by fluorescence based analysis
T1 sequence (P03956 whole entry): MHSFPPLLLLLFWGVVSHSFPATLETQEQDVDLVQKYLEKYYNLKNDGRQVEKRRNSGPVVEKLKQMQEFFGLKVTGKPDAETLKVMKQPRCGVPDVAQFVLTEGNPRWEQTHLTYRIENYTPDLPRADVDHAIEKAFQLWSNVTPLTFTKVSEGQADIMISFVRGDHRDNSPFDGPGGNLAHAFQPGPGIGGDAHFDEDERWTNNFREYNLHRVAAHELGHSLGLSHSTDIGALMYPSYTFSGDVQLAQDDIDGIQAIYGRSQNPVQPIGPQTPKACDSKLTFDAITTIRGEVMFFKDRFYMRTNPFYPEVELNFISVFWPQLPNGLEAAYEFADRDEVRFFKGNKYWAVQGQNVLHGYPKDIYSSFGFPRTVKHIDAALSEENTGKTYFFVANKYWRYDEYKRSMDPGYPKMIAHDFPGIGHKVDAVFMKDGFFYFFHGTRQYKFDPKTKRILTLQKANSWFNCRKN

Matrilysin [5] = target: T2, Matrilysin (Homo sapiens, UniProt P09237); experiment: Inhibition of recombinant human MMP7 using MOCAc-Pro-Leu-Gly-Leu-A2pr-(Dnp)-Ala-Arg-NH2 as substrate preincubated with compound for 15 mins followed by substrate addition and measured after 2 hrs by fluorescence based analysis
T2 sequence (P09237 whole entry): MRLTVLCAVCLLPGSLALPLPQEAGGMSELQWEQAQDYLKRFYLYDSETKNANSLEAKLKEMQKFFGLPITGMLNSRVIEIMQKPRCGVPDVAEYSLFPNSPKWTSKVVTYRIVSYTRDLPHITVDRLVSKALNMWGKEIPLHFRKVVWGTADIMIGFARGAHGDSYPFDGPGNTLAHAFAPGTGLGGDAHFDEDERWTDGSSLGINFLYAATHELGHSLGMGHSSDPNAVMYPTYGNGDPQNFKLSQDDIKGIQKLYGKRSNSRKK

[6] = Protein binding in human serum incubated for 4 hrs by equilibrium dialysis based LC-MS/MS analysis; type: ADME, cell-free; conditions: read-out: PB (converted)
[7] = Metabolic stability in rat hepatocytes assessed as intrinsic clearance at 1 uM incubated for 1 to 4 hrs by LC-MS/MS analysis; type: ADME, cell-based, Hepatocyte; conditions: time 1-4 hrs, read-out: CLH (converted)
Homo sapiens [8] = species: Homo sapiens; experiment: Selectivity ratio of IC50 for inhibition of recombinant human MMP9 to IC50 for inhibition of recombinant human MMP7
Collagenase 3 = Collagenase 3 (Homo sapiens, UniProt P45452); experiment: Inhibition of recombinant human MMP13 using MOCAc-Pro-Leu-Gly-Leu-A2pr-(Dnp)-Ala-Arg-NH2 as substrate preincubated with compound for 15 mins followed by substrate addition and measured after 1 hrs by fluorescence based analysis
[9] = Metabolic stability in human liver microsome assessed as intrinsic clearance at 1 uM incubated for 15 mins by LC-MS analysis; type: ADME; conditions: liver microsomes, read-out: CLH (converted)
[10] = Metabolic stability in rat liver microsome assessed as intrinsic clearance at 1 uM incubated for 15 mins by LC-MS analysis; type: ADME; conditions: liver microsomes, read-out: CLH (converted)
Homo sapiens [11] = species: Homo sapiens; experiment: Selectivity ratio of IC50 for inhibition of recombinant human MMP14 to IC50 for inhibition of recombinant human MMP7
Homo sapiens [12] = species: Homo sapiens; experiment: Selectivity ratio of IC50 for inhibition of recombinant human MMP3 to IC50 for inhibition of recombinant human MMP7
Matrilysin [13] = target: T3, Matrilysin (Mus musculus, UniProt Q10738); experiment: Inhibition of mouse MMP7 using MOCAc-Pro-Leu-Gly-Leu-A2pr-(Dnp)-Ala-Arg-NH2 as substrate preincubated with compound for 15 mins followed by substrate addition and measured after 2 hrs by fluorescence based analysis
T3 sequence (Q10738 whole entry): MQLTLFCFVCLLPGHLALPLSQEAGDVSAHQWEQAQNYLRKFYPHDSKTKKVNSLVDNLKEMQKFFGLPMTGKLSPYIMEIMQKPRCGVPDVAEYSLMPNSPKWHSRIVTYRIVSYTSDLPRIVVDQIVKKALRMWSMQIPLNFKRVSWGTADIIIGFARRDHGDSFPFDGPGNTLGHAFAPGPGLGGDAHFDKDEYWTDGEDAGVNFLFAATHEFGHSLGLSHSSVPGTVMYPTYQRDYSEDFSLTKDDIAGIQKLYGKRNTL

Homo sapiens [14] = species: Homo sapiens; experiment: Selectivity ratio of IC50 for inhibition of recombinant human MMP8 to IC50 for inhibition of recombinant human MMP7
[15] = target: 72 kDa type IV collagenase (Homo sapiens, UniProt P08253); experiment: Inhibition of recombinant human MMP2 using MOCAc-Pro-Leu-Gly-Leu-A2pr-(Dnp)-Ala-Arg-NH2 as substrate preincubated with compound for 15 mins followed by substrate addition and measured after 1 hrs by fluorescence based analysis
[16] = Volume of distribution at steady state in Sprague-Dawley rat at 1 mg/kg, iv administered as single dose by LC-MS/MS analysis; type: ADME, organism-based; conditions: in vivo, read-out: Vdss
Stromelysin-1 = Stromelysin-1 (Homo sapiens, UniProt P08254); experiment: Inhibition of recombinant human MMP3 using MOCAc-Arg-Pro-Lys-Pro-Val-Glu-Nva-Trp-Arg-Lys(Dnp)-NH2 as substrate preincubated with compound for 15 mins followed by substrate addition and measured after 1 hrs by fluorescence based analysis
[17] = target: Macrophage metalloelastase (Homo sapiens, UniProt P39900); experiment: Inhibition of recombinant human MMP12 using MOCAc-Pro-Leu-Gly-Leu-A2pr-(Dnp)-Ala-Arg-NH2 as substrate preincubated with compound for 15 mins followed by substrate addition and measured after 1 hrs by fluorescence based analysis
[18] = Lipophilicity, logD of compound at pH 7.4 by HPLC-UV analysis; type: physicochemical; conditions: buffer
Neutrophil collagenase = Neutrophil collagenase (Homo sapiens, UniProt P22894); experiment: Inhibition of recombinant human MMP8 using MOCAc-Pro-Leu-Gly-Leu-A2pr-(Dnp)-Ala-Arg-NH2 as substrate preincubated with compound for 15 mins followed by substrate addition and measured after 1 hrs by fluorescence based analysis
[19] = target: Matrix metalloproteinase-9 (Homo sapiens, UniProt P14780); experiment: Inhibition of recombinant human MMP9 using MOCAc-Pro-Leu-Gly-Leu-A2pr-(Dnp)-Ala-Arg-NH2 as substrate preincubated with compound for 15 mins followed by substrate addition and measured after 1 hrs by fluorescence based analysis
[20] = Metabolic stability in human serum assessed as parent compound remaining at 5 uM incubated for 4 hrs by LC-MS/MS analysis; type: ADME, cell-free; conditions: read-out: Stability
Homo sapiens [21] = species: Homo sapiens; experiment: Selectivity ratio of IC50 for inhibition of recombinant human MMP12 to IC50 for inhibition of recombinant human MMP7
Homo sapiens [22] = species: Homo sapiens; experiment: Selectivity ratio of IC50 for inhibition of recombinant human MMP13 to IC50 for inhibition of recombinant human MMP7
[23] = target: Matrix metalloproteinase-14 (Homo sapiens, UniProt P50281); experiment: Inhibition of recombinant human MMP14 using MOCAc-Lys-Pro-Leu-Gly-Leu-A2pr(Dnp)-Ala-Arg-NH2 as substrate preincubated with compound for 15 mins followed by substrate addition and measured after 1 hrs by fluorescence based analysis

Chain of Matrix metalloproteinase-9 (P14780 whole entry): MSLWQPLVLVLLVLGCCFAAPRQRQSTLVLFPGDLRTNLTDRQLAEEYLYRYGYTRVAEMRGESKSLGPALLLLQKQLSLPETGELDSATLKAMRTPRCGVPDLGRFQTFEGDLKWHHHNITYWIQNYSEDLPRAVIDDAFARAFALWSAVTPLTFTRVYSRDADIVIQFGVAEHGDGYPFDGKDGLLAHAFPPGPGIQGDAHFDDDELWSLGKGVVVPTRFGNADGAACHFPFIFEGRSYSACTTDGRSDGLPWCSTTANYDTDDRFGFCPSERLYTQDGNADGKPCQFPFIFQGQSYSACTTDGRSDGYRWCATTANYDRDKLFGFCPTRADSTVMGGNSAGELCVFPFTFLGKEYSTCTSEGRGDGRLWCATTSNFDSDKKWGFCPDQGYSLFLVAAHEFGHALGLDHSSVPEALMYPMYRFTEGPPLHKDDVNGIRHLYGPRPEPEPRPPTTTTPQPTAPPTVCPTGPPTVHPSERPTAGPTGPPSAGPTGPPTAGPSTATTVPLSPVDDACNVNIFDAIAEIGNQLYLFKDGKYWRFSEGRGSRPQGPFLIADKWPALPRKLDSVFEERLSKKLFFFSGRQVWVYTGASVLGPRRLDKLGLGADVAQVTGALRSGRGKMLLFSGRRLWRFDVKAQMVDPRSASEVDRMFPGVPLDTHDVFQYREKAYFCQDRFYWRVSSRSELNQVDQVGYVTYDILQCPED
Chain of Stromelysin-1 (P08254 whole entry): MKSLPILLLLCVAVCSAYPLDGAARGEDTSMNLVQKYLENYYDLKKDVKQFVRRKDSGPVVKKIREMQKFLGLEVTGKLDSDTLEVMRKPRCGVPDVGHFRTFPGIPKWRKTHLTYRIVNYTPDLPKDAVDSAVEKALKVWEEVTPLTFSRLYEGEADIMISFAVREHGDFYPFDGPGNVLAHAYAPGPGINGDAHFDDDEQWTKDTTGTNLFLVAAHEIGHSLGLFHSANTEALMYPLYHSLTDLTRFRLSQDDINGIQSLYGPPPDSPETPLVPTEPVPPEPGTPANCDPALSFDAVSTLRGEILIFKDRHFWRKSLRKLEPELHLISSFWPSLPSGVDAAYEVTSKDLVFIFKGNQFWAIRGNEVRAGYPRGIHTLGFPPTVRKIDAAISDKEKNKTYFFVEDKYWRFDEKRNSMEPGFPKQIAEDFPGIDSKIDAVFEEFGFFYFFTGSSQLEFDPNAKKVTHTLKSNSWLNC
Chain of Neutrophil collagenase (P22894 whole entry): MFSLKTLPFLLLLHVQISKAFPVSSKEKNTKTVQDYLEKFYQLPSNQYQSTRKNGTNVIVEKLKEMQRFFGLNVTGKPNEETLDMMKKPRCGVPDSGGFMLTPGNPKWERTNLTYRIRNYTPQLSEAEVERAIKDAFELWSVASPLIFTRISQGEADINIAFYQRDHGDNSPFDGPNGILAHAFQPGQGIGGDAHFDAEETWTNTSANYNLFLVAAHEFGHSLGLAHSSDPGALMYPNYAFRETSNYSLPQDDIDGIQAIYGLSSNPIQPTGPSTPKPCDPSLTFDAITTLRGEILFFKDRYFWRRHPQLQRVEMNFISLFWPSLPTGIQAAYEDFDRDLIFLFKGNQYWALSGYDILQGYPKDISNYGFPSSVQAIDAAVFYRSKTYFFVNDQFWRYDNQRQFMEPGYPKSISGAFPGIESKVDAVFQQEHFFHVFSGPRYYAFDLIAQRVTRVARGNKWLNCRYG
Chain of 72 kDa type IV collagenase (P08253 whole entry): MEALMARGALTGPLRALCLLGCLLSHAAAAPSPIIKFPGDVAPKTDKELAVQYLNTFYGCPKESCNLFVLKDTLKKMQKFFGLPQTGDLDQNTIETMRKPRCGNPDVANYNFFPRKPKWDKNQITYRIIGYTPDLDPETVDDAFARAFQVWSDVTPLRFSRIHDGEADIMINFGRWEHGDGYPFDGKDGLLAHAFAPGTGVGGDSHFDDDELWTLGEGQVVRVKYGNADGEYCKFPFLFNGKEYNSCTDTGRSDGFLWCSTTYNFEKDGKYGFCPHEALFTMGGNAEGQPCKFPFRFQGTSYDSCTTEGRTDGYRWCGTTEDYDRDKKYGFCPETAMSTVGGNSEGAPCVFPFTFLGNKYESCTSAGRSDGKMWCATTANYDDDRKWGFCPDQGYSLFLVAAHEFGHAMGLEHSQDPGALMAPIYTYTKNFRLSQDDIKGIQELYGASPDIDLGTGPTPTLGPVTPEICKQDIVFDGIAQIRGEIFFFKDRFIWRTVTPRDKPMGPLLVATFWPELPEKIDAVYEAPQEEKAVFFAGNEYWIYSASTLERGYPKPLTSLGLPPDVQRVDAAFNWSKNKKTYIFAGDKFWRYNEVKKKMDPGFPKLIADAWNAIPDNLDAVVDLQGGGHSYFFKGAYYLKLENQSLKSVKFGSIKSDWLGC
Chain of Macrophage metalloelastase (P39900 whole entry): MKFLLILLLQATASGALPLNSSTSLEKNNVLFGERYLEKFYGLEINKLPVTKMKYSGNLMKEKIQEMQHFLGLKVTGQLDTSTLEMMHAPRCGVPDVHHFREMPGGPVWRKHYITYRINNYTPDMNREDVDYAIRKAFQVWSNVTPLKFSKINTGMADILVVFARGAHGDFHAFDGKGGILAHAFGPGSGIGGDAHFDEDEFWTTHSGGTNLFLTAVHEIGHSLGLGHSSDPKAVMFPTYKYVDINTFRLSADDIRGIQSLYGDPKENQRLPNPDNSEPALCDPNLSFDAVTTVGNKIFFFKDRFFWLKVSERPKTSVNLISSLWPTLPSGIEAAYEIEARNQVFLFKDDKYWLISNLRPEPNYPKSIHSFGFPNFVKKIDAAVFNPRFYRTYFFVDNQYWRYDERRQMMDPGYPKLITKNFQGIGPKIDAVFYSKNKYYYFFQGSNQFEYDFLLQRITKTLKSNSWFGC

SMILES: CC(C)(C)[C@H](NC(=O)[C@H](Cc1ccncc1)NC(=O)CNC(=O)CC[C@H](NS(=O)(=O)c1ccc(Cl)c(C(F)(F)F)c1)C(=O)O)C(=O)N1CCC[C@H]1CC(N)=O ({Benzenesulfonyl(4-Cl,3-CF3)-γGlu}-G[4Pal][Tle][β3hP]-NH2)
- Ratio IC50 (Homo sapiens [1]): > 36000
- Ratio IC50 (Homo sapiens [2]): 2700
- clearance [3]: 85.5 mL/min/kg
- fraction unbound at 4 h [4]: 0.368
- Activity (Mus musculus): Active
- IC50 (Interstitial collagenase): > 100 µM
- IC50 (Matrilysin [5]): 0.0028 µM
- fraction unbound at 4 h [6]: 0.266
- CLint scaled at 1 µM [7]: 11 mL/min/kg
- Ratio IC50 (Homo sapiens [8]): > 36000
- IC50 (Collagenase 3): > 100 µM
- CLint scaled at 1 µM [9]: 13.6 mL/min/kg
- CLint scaled at 1 µM [10]: 23.6 mL/min/kg
- Ratio IC50 (Homo sapiens [11]): 300
- Ratio IC50 (Homo sapiens [12]): > 36000
- IC50 (Matrilysin [13]): 0.049 µM
- Ratio IC50 (Homo sapiens [14]): > 36000
- IC50 [15]: 7.5 µM
- Vd [16]: 1.09 L/kg
- IC50 (Stromelysin-1): > 100 µM
- IC50 [17]: 1.3 µM
- logD [18]: 1.04
- IC50 (Neutrophil collagenase): > 100 µM
- IC50 [19]: > 100 µM
- remaining at 4 h, 5 µM [20]: 101%
- Ratio IC50 (Homo sapiens [21]): 460
- Ratio IC50 (Homo sapiens [22]): > 36000
- IC50 [23]: 0.85 µM
